Tested on: HBV rcDNA in HepDE19 cells
Assay: HepDE19 assay with bDNA quantitation of HBV rcDNA
Format: cell-based, hepatitis B virus
Conditions: Hepatitis B virus, HepDE19, HepDE19 assay, inhibition of rcDNA formation, bDNA quantitation; read-out: DE-19bDNA EC50

Structure (SMILES)	EC50
CN(C(=O)c1cc2cc(F)c(F)cc2[nH]1)[C@@H]1CCC(O)c2[nH]c(=O)c3cc(F)c(F)cc3c21 (stereo partly drawn) [Compound 503, N-((1R)-8,9-difluoro-4-hydroxy-6-oxo-1,2,3,4,5,6-hexahydrophenanthridin-1-yl)-5,6-difluoro-N-methyl-1H-indole-2-carboxamide]	20 nM
CN(C(=O)C(F)(F)c1ccccc1)[C@@H]1COCc2[nH]c(=O)c3cc(F)c(F)cc3c21 [Compound 512, (S)-N-(8,9-Difluoro-6-oxo-1,4,5,6-tetrahydro-2H-pyrano[3,4-c]isoquinolin-1-yl)-2,2-difluoro-N-methyl-2-phenylacetamide]	25000 nM
[2H][C@@]1(N(C(=O)c2cc3cc(F)c(F)cc3[nH]2)[13C]([2H])([2H])[2H])COCc2[nH]c(=O)c3cc(F)c(F)cc3c21 [Compound 514, (S)-N-(8,9-Difluoro-6-oxo-1,4,5,6-tetrahydro-2H-pyrano[3,4-c]isoquinolin-1-yl-1-d)-5,6-difluoro-N-(methyl-^13C-d3)-1H-indole-2-carboxamide]	8 nM
[2H][C@@]1(N(C(=O)c2cc3cc(F)c(C(F)F)cc3[nH]2)[13C]([2H])([2H])[2H])COCc2[nH]c(=O)c3cc(F)c(F)cc3c21 [Compound 515, (S)-N-(8,9-Difluoro-6-oxo-1,4,5,6-tetrahydro-2H-pyrano[3,4-c]isoquinolin-1-yl-1-d)-6-(difluoromethyl)-5-fluoro-N-(methyl-^13C-d3)-1H-indole-2-carboxamide]	10 nM
[2H][C@@]1(N(C(=O)c2cc3sc(Cl)cc3[nH]2)[13C]([2H])([2H])[2H])COCc2[nH]c(=O)c3cc(F)c(F)cc3c21 [Compound 516, (S)-2-Chloro-N-(8,9-difluoro-6-oxo-1,4,5,6-tetrahydro-2H-pyrano[3,4-c]isoquinolin-1-yl-1-d)-N-(methyl-^13C-d3)-4H-thieno[3,2-b]pyrrole-5-carboxamide]	10 nM
